Broadly, the pIC50 is −log10 of the IC50, conventionally taken in molar units.

SMILES strings stand for the structures. pIC50: −log10 of the molar value. Some results are limits rather than exact numbers.

From US7208517B1, “Endothelin antagonists” (Abbott Labortories, priority 1994, dated 2007) come the findings set out here.

In assay [1] the target is T1, ETB receptors of porcine cerebellar tissues (pET-B) (Sus scrofa, UniProt P35463).
T1 construct: porcine cerebellar tissues (known to contain ETB receptors); from tissue; host or cells: porcine cerebellum (membranes)
T1 sequence (P35463 27-443): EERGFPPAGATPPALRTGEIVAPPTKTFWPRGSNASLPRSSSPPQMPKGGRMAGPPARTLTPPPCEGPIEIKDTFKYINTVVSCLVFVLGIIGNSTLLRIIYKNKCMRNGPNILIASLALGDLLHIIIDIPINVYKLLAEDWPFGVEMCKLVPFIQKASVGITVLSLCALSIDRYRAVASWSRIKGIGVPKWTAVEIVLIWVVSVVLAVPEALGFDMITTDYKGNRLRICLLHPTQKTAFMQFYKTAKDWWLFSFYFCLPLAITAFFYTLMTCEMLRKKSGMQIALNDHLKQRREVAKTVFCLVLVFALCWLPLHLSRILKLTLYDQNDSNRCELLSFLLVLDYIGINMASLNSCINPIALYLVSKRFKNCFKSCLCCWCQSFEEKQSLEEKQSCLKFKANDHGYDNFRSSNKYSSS
Nature of the assay: ETA/ETB selectivity: (125I)ET-3 competition binding, ETB assay in porcine cerebellum membranes (pET-B). As to conditions: porcine cerebellum membranes; 0.1 nM (125I)ET-3; read-out: pET-B IC50.

The target in a further assay is T2, human ETA receptor (Homo sapiens, UniProt P25101).
T2 construct: expressed in transfected cells; host or cells: CHO cells, permanently transfected
T2 sequence (P25101 21-427): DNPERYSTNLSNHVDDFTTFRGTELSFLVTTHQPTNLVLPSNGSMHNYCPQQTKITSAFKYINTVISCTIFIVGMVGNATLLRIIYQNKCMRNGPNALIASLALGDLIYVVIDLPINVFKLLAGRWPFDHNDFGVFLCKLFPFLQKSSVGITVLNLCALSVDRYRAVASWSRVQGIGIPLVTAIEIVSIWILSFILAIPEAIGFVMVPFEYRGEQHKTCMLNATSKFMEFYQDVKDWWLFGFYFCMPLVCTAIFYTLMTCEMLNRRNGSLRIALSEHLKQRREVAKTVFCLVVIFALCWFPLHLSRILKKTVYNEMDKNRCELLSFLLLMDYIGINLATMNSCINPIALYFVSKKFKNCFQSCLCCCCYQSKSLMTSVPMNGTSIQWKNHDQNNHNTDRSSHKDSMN
Nature of the assay: ETA/ETB selectivity: (125I)ET-1 competition binding, CHO cells transfected with human ETA receptor (hET-A). As to conditions: CHO cells transfected with human ETA receptor; 0.1 nM (125I)ET-1; read-out: hET-A IC50. On the procedure: (§1) The mixture was centrifuged at 1000×g for 10 min. The supernatant was collected and centrifuged at 60,000×g for 60 min. The precipitate was resuspended in 20 mM Tris, pH 7.4 containing protease inhibitor and centrifuged again. The final membrane pellet was resuspended in 20 mM Tris, pH 7.4 containing protease inhibitors and stored at −80° C. until used. Protein content was determined by the Bio-Rad dye-binding protein assay.
(§2) Binding assays were performed in 96-well microtiter plates pretreated with 0.1% BSA. […] After incubation, unbound ligands were separated from bound ligands by a vacuum filtration method using glass-fiber filter strips in PHD cell harvesters (Cambridge Technology, Inc., MA), washing the filter strips three times with saline (1 mL). Nonspecific binding was determined in the presence of 1 μM ET-1. IC50 values are calculated using an average of at least two separate determinations.

For assay [2], the target named is T3, ETA receptor in MMQ cells (rET-A) (Rattus norvegicus, UniProt P26684).
T3 construct: endogenous in cells; host or cells: MMQ rat pituitary cells (membranes)
T3 sequence (P26684 21-426): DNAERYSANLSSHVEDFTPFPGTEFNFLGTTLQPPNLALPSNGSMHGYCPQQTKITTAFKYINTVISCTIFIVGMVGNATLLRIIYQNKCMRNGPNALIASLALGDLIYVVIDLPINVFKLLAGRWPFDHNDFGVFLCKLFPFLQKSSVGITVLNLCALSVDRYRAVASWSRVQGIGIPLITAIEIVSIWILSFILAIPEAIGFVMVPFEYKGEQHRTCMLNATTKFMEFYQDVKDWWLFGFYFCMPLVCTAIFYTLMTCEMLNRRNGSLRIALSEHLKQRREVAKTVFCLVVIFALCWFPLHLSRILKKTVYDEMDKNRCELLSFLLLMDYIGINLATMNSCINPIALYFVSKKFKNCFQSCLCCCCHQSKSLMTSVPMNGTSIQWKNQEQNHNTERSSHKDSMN
Nature of the assay: ETA/ETB selectivity: (125I)ET-1 competition binding, ETA assay in MMQ cell membranes (rET-A). The note with it: MMQ cell membranes; 0.1 nM (125I)ET-1; read-out: rET-A IC50. On the procedure: as §1, §2

Assay [3] concerns male subjects with hormone refractory prostate cancer. Nature of the assay: Acid phosphatase levels in serum of treated subjects. Type of assay: in vivo, human. As to conditions: subjects treated with placebo or 2.5 mg or 10 mg. The method, then: Studies were performed on male subjects with asymptomatic hormone refractory prostate cancer with rising PSA levels and on male subjects with symptomatic hormone refractory prostate cancer with rising PSA levels and pain. Subjects in the phase II studies had castrate levels of testosterone, either due to pharmacologic intervention, via leuprolide (Lupron®) or goserelin (Zoladex®), or via surgical castration. Subjects received ABT-627 or placebo. The following tests were conducted:
ABT-627 was formulated in 2.5 and 10 mg doses. An oral liquid formulation of ABT-627 was also prepared as follows: 1 mg/ml ABT-627, 50% glycerin, 14% alcohol, and water. Matching placebos were also provided.
The enzyme Acid Phosphatase (ACP) catalyzes the hydrolysis of alpha-naphthyl phosphate to alpha-naphthol and inorganic phosphate. The alpha-naphthol immediately reacts with fast red TR salt to produce a yellow chromophore with an absorbance maximum at 405 nm. The rate of increase in absorbance at 405 nm is directly proportional to ACP activity in the sample. ACP activity was determined in the presence and absence of L-tartrate, the difference being attributed to prostatic acid phosphatase activity.
Briefly, a subject population was treated with a placebo or 2.5 mg or 10 mg of ABT-627. […] The mixture was incubated for another 5 minutes, and a second absorbance was read to provide a final absorbance. […]

As for `CCCCN(CCCC)C(=O)CN1CC(c2ccc3c(c2)OCO3)C(C(=O)O)C1CCC1CCCCO1` (stereo not drawn) [compound 505], the results for the pIC50 (in assay [1]; at human ETA receptor; in assay [2]) were 4.22, 8.24 and 8.70, respectively.

`CCCCN(C(=O)CN1CC(c2ccc3c(c2)OCO3)C(C(=O)O)C1c1ccc(OC)cc1)c1cccnc1` (stereo not drawn) [compound 531]: the pIC50 was 9.15 on human ETA receptor and 8.92 in assay [2].

Turning to `CCCCN(CCCC)C(=O)CN1C[C@H](c2ccc3c(c2)OCO3)[C@@H](C(=O)O)[C@@H]1CC(C)(C)CCC` [compound 537], the pIC50 in assay [1] was 5.23; at human ETA receptor it was 9.64; in assay [2] it was 9.02.

On to `CCCCN(CCCO)C(=O)CN1CC(c2ccc3c(c2)OCO3)C(C(=O)O)C1c1ccc(OC)cc1` (stereo not drawn) [compound 523], for which the results for the pIC50 (in assay [1]; at human ETA receptor; in assay [2]) were 6.44, 9.48 and 9.38, respectively.

As to `CCCCN(CCCC)C(=O)CN1CC(c2ccc3c(c2)OCO3)C(C(=O)O)C1CCC1OCCO1` (stereo not drawn) [compound 504], the values for the pIC50 (in assay [1]; at human ETA receptor; in assay [2]) were below 4.00, 8.34 and 8.51, respectively.

`CCCC(CCC)N(C(=O)CN1CC(c2cc(OC)c3c(c2)OCO3)C(C(=O)O)C1CCC1OCCO1)c1ccc(F)c(C)c1` (stereo not drawn) [compound 513]: the pIC50 in assay [1] was 5.06; at human ETA receptor, 9.44; in assay [2], 9.52.

For `CCCCN(CCCC)C(=O)CN1CC(c2cc(OC)c3c(c2)OCO3)C(C(=O)O)C1CC(C)(C)C1OCCO1` (stereo not drawn) [compound 516], the pIC50 in assay [1] was 4.54; at human ETA receptor, 8.74; in assay [2] it was 9.15.

As to `CCCCN(CCCC)C(=O)CN1CC(c2ccc3c(c2)OCO3)C(C(=O)O)C1CC(C)(C)C=C(C)C` (stereo not drawn) [compound 506], the pIC50 in assay [1] is below 4.00; at human ETA receptor, 8.52; in assay [2], 8.49.

Take `CCCCN(CCCC)C(=O)CN1CC(c2ccc3c(c2)OCO3)C(C(=O)O)C1CCc1ccccc1OC` (stereo not drawn) [compound 517]: the pIC50 in assay [1] is 4.52; at human ETA receptor, 9.37; in assay [2], 9.00.

With `CCCCN(CCCC)C(=O)CN1CC(c2ccc3c(c2)OCO3)C(C(=O)O)C1CC(C)(C)C1OCCO1` (stereo not drawn) [compound 507], the values for the pIC50 (in assay [1]; on human ETA receptor; in assay [2]) were below 4.00, 8.79 and 8.52, respectively.

For the compound `CCCCN(CCCC)C(=O)CN1C[C@H](c2ccc3c(c2)CCO3)[C@@H](C(=O)O)[C@@H]1CC(C)(C)CCC` [compound 515], the pIC50 in assay [1] is below 4.21; on human ETA receptor, 8.17; in assay [2], 8.80.

As for `CCCCN(CCCC)C(=O)CN1CC(c2ccc3c(c2)OCO3)C(C(=O)O)C1COc1ccccc1OC` (stereo not drawn) [compound 510], the pIC50 was 4.46 in assay [1], 9.00 on human ETA receptor and 9.30 in assay [2].

In the case of `CCCON(CCC)C(=O)CN1CC(c2ccc3c(c2)OCO3)C(C(=O)O)C1c1ccc(OC)cc1` (stereo not drawn) [compound 524], the pIC50 is 5.77 in assay [1], 9.09 on human ETA receptor and 9.10 in assay [2].

`CCCCCN(CCCC)C(=O)CN1C[C@H](c2ccc3c(c2)OCO3)[C@@H](C(=O)O)[C@@H]1c1ccc(OC)cc1` [ABT-627]: the “rate of increase and average change from baseline for acid phosphatase (AUC, FIG. 7)” value in assay [3] is “the rate of increase and the average change from baseline for acid phosphatase was decreased”.

Take `CCCCN(CCCC)C(=O)CN1CC(c2ccc3c(c2)OCO3)C(C(=O)O)C1CC(C)(C)CCC` (stereo not drawn) [compound 503]: the pIC50 in assay [1] was 4.30; at human ETA receptor it was 9.04; in assay [2], 8.85.

On to `CCCCN(CCCC)C(=O)CN1CC(c2cc(OC)c3c(c2)OCO3)C(C(=O)O)C1CCC1OCCO1` (stereo not drawn) [compound 509], for which the pIC50 in assay [1] is 4.52; on human ETA receptor, 9.29; in assay [2] it was 9.25.
